Source: patent publication US9732047B2, “N-alkoxyamide conjugates as imaging agents” (Lantheus Medical Imaging, Inc., priority 2008, dated 2017)

What follows are compounds tested on aorta (assay: not given). Details: control rabbit (non-plaque bearing), 0.01-0.05 mCi/kg bolus via marginal ear vein, 60 min post injection.
Procedure: Atherosclerosis was induced in New Zealand White male rabbits (3 kg) with aortic balloon endothelial injury (vide supra) followed by feeding a 0.5% cholesterol diet for 22 weeks. Test compounds were administered at 0.01-0.05 mCi/kg to anesthetized rabbits in a single, bolus injection via the marginal ear vein. Blood samples were collected from the central ear artery at 0, 2, 5, 7, 10, 15, 30 and 60 min post injection. Rabbits were euthanized at 60 min post injection for tissue harvesting (blood, muscle, bile, urine, kidney, liver, spleen, heart, lung, colon, small intestine, stomach, testes and in some cases, sternum, ligament and right ear). Abdominal aorta (upper, middle, and lower) and left and right femoral arteries were also collected. All samples were weighed and assayed for radioactivity; uptake is expressed as percentage of injected dose per gram of tissue (% ID/g).

Structure (SMILES) | aorta (% ID/g ± SD) [% ID/g]
N[C@H](CCc1ccccc1)C(=O)NOCc1ccc(CNC(=O)CN2CCN(CC(=O)[O-])CCN(CC(=O)[O-])CCN(CC(=O)[O-])CC2)cc1.[153Gd+3] [Example 38] | 0.196 ± 0.023
N[C@H](Cc1ccc2ccccc2c1)C(=O)NOCc1ccc(CNC(=O)CN2CCN(CC(=O)[O-])CCN(CC(=O)[O-])CCN(CC(=O)[O-])CC2)cc1.[153Gd+3] [Example 60] | 0.187 ± 0.022
N[C@H](Cc1cc2ccccc2[nH]1)C(=O)NOCc1ccc(CNC(=O)CN2CCN(CC(=O)[O-])CCN(CC(=O)[O-])CCN(CC(=O)[O-])CC2)cc1.[153Gd+3] [Example 62] | 0.159

Same assay, conditions: control rabbit, 60 min post injection

Structure (SMILES) | aorta:blood | aorta:heart
N[C@H](CCc1ccccc1)C(=O)NOCc1ccc(CNC(=O)CN2CCN(CC(=O)[O-])CCN(CC(=O)[O-])CCN(CC(=O)[O-])CC2)cc1.[153Gd+3] [Example 38] | 5.1 | 11.0
N[C@H](Cc1ccc2ccccc2c1)C(=O)NOCc1ccc(CNC(=O)CN2CCN(CC(=O)[O-])CCN(CC(=O)[O-])CCN(CC(=O)[O-])CC2)cc1.[153Gd+3] [Example 60] | 3.8 | 6.4
N[C@H](Cc1cc2ccccc2[nH]1)C(=O)NOCc1ccc(CNC(=O)CN2CCN(CC(=O)[O-])CCN(CC(=O)[O-])CCN(CC(=O)[O-])CC2)cc1.[153Gd+3] [Example 62] | 3.2 | 6.4

Same assay, conditions: plaque rabbit, 0.01-0.05 mCi/kg bolus via marginal ear vein, 60 min post injection

Structure (SMILES) | aorta (% ID/g ± SD) [% ID/g]
N[C@H](CCc1ccccc1)C(=O)NOCc1ccc(CNC(=O)CN2CCN(CC(=O)[O-])CCN(CC(=O)[O-])CCN(CC(=O)[O-])CC2)cc1.[153Gd+3] [Example 38] | 0.103 ± 0.002
[153Gd+3].[NH3+][C@H](CCc1ccccc1)C(=O)NOCc1ccc(CNC(=O)CN(CCN(CC(=O)[O-])CC(=O)[O-])CCN(CC(=O)[O-])CC(=O)[O-])cc1 [Example 37] | 0.087 ± 0.010
N[C@H](Cc1ccc2ccccc2c1)C(=O)NOCc1ccc(CNC(=O)CN2CCN(CC(=O)[O-])CCN(CC(=O)[O-])CCN(CC(=O)[O-])CC2)cc1.[153Gd+3] [Example 60] | 0.108 ± 0.012

Same assay, conditions: plaque rabbit, 60 min post injection

Structure (SMILES) | aorta:blood | aorta:heart
N[C@H](CCc1ccccc1)C(=O)NOCc1ccc(CNC(=O)CN2CCN(CC(=O)[O-])CCN(CC(=O)[O-])CCN(CC(=O)[O-])CC2)cc1.[153Gd+3] [Example 38] | 2.4 | 5.1
[153Gd+3].[NH3+][C@H](CCc1ccccc1)C(=O)NOCc1ccc(CNC(=O)CN(CCN(CC(=O)[O-])CC(=O)[O-])CCN(CC(=O)[O-])CC(=O)[O-])cc1 [Example 37] | 2.1 | 4.6
N[C@H](Cc1ccc2ccccc2c1)C(=O)NOCc1ccc(CNC(=O)CN2CCN(CC(=O)[O-])CCN(CC(=O)[O-])CCN(CC(=O)[O-])CC2)cc1.[153Gd+3] [Example 60] | 2.4 | 4.0

These compounds were tested on aorta (assay: not given). Details: ApoE mice on high-fat diet 35-42 weeks, 0.3-0.4 mCi/kg bolus via tail vein, 60 min post injection.
Procedure: The apolipoprotein E (ApoE) knockout mouse is a model of hypercholesterolemia that develops atherosclerotic lesions in the brachiocephalic artery, the aortic arch and the abdominal aorta. Mice were fed a high-fat diet to accelerate plaque formation and compounds were tested in the mice between 35-42 weeks on diet. Test compounds were administered at 0.3-0.4 mCi/kg to anesthetized mice in a single, bolus injection via the tail vein. Blood samples were collected via the tail between 0-30 min post injection for pharmacokinetic analysis and mice were euthanized by CO2 at 60 min for tissue harvesting. The aorta was first flushed with saline through the left ventricle exiting via the femoral vein then removed from the heart to the renal bifurcation; additional biological samples were also collected (blood, muscle, liver, kidney, bile, urine, heart, femur, reproductive organ, lung, spleen and innominate artery). All samples were weighed and assayed for radioactivity; uptake is expressed as a percentage of injected dose per gram of tissue (% ID/g).

Structure (SMILES) | aorta uptake (% ID/g)
N[C@H](CCc1ccccc1)C(=O)NOCc1ccc(CNC(=O)CN2CCN(CC(=O)[O-])CCN(CC(=O)[O-])CCN(CC(=O)[O-])CC2)cc1.[153Gd+3] [Example 38] | 11.6 ± 0.8
[153Gd+3].[NH3+][C@H](CCc1ccccc1)C(=O)NOCc1ccc(CNC(=O)CN(CCN(CC(=O)[O-])CC(=O)[O-])CCN(CC(=O)[O-])CC(=O)[O-])cc1 [Example 37] | 10.4 ± 1.4
[153Gd+3].[NH3+][C@H](CCc1ccccc1)C(=O)NOCCCCCCNC(=O)CN(CCN(CC(=O)[O-])CC(=O)[O-])CCN(CC(=O)[O-])CC(=O)[O-] [Example 45] | 9.0 ± 0.2
[153Gd+3].[NH3+][C@H](CC1CCCCC1)C(=O)NOCCCCCCNC(=O)CN(CCN(CC(=O)[O-])CC(=O)[O-])CCN(CC(=O)[O-])CC(=O)[O-] [Example 42] | 8.1 ± 1.1
[153Gd+3].[NH3+][C@H](Cc1ccccc1)C(=O)NOCc1ccc(CNC(=O)CN(CCN(CC(=O)[O-])CC(=O)[O-])CCN(CC(=O)[O-])CC(=O)[O-])cc1 [Example 58] | 6.1 ± 0.2
N[C@H](Cc1ccc2ccccc2c1)C(=O)NOCc1ccc(CNC(=O)CN2CCN(CC(=O)[O-])CCN(CC(=O)[O-])CCN(CC(=O)[O-])CC2)cc1.[153Gd+3] [Example 60] | 18.4 ± 2.4
N[C@H](Cc1cc2ccccc2[nH]1)C(=O)NOCc1ccc(CNC(=O)CN2CCN(CC(=O)[O-])CCN(CC(=O)[O-])CCN(CC(=O)[O-])CC2)cc1.[153Gd+3] [Example 62] | 11.8 ± 1.4

Same assay, conditions: ApoE mice, 60 min post injection, uptake ratio

Structure (SMILES) | aorta:blood | aorta:heart
N[C@H](CCc1ccccc1)C(=O)NOCc1ccc(CNC(=O)CN2CCN(CC(=O)[O-])CCN(CC(=O)[O-])CCN(CC(=O)[O-])CC2)cc1.[153Gd+3] [Example 38] | 5.5 | 20.5
[153Gd+3].[NH3+][C@H](CCc1ccccc1)C(=O)NOCc1ccc(CNC(=O)CN(CCN(CC(=O)[O-])CC(=O)[O-])CCN(CC(=O)[O-])CC(=O)[O-])cc1 [Example 37] | 4.2 | 16.2
[153Gd+3].[NH3+][C@H](CCc1ccccc1)C(=O)NOCCCCCCNC(=O)CN(CCN(CC(=O)[O-])CC(=O)[O-])CCN(CC(=O)[O-])CC(=O)[O-] [Example 45] | 2.1 | 12.1
[153Gd+3].[NH3+][C@H](CC1CCCCC1)C(=O)NOCCCCCCNC(=O)CN(CCN(CC(=O)[O-])CC(=O)[O-])CCN(CC(=O)[O-])CC(=O)[O-] [Example 42] | 8.0 | 18.0
[153Gd+3].[NH3+][C@H](Cc1ccccc1)C(=O)NOCc1ccc(CNC(=O)CN(CCN(CC(=O)[O-])CC(=O)[O-])CCN(CC(=O)[O-])CC(=O)[O-])cc1 [Example 58] | 6.5 | 17.9
N[C@H](Cc1ccc2ccccc2c1)C(=O)NOCc1ccc(CNC(=O)CN2CCN(CC(=O)[O-])CCN(CC(=O)[O-])CCN(CC(=O)[O-])CC2)cc1.[153Gd+3] [Example 60] | 9.8 | 25.2
N[C@H](Cc1cc2ccccc2[nH]1)C(=O)NOCc1ccc(CNC(=O)CN2CCN(CC(=O)[O-])CCN(CC(=O)[O-])CCN(CC(=O)[O-])CC2)cc1.[153Gd+3] [Example 62] | 5.7 | 22.2

What follows are compounds tested on Aorta bearing atherosclerotic plaque (assay: Ex-vivo blood vessel binding assay). Details: 153Gd-labeled compound 0.135 μCi in PBS, 2 h at 37° C., plaque-bearing rabbit aorta sections; percentage of initial activity.
Design: species or system New Zealand white rabbits
Procedure: Aorta bearing atherosclerotic plaque was obtained from New Zealand white rabbits that were balloon stripped along the abdominal aorta and placed on a high fat diet (0.5% cholesterol) for 16-22 weeks. Vascular injury was produced with a 4-F Fogarty catheter along the abdominal aorta and right iliofemoral artery. This procedure generates an accelerated complex lesion development with a lipid rich core covered by a fibrous cap in rabbits. Harvested aorta sections (0.5 cm) were incubated with 0.135 μCi of ^153Gd-labeled compound diluted in phosphate buffered saline (450 μL) for 2 h at 37° C. The supernatant was removed and analyzed by HPLC to assay compound stability. The tissue section was then washed with phosphate buffered saline (3×10 mL), then resuspended (10 mL) and incubated at 37° C. an additional 1 h. The supernatant was then removed, the washing process repeated and the tissue finally counted on a gamma counter. The amount of compound bound to the tissue was determined as a percentage of the initial activity according to the following formula: […]

Structure (SMILES) | % bound [%]
N[C@H](CCc1ccccc1)C(=O)NOCc1ccc(CNC(=O)CN2CCN(CC(=O)[O-])CCN(CC(=O)[O-])CCN(CC(=O)[O-])CC2)cc1.[153Gd+3] [Example 38] | 19.1
[153Gd+3].[NH3+][C@H](CCc1ccccc1)C(=O)NOCc1ccc(CNC(=O)CN(CCN(CC(=O)[O-])CC(=O)[O-])CCN(CC(=O)[O-])CC(=O)[O-])cc1 [Example 37] | 12.8
[153Gd+3].[NH3+][C@H](CCc1ccccc1)C(=O)NOCCCCCCNC(=O)CN(CCN(CC(=O)[O-])CC(=O)[O-])CCN(CC(=O)[O-])CC(=O)[O-] [Example 45] | 14.4
[153Gd+3].[NH3+][C@H](CC1CCCCC1)C(=O)NOCCCCCCNC(=O)CN(CCN(CC(=O)[O-])CC(=O)[O-])CCN(CC(=O)[O-])CC(=O)[O-] [Example 42] | 17.9
[153Gd+3].[NH3+][C@H](Cc1ccccc1)C(=O)NOCc1ccc(CNC(=O)CN(CCN(CC(=O)[O-])CC(=O)[O-])CCN(CC(=O)[O-])CC(=O)[O-])cc1 [Example 58] | 7.3
N[C@H](Cc1ccc2ccccc2c1)C(=O)NOCc1ccc(CNC(=O)CN2CCN(CC(=O)[O-])CCN(CC(=O)[O-])CCN(CC(=O)[O-])CC2)cc1.[153Gd+3] [Example 60] | 30.9
N[C@H](Cc1cc2ccccc2[nH]1)C(=O)NOCc1ccc(CNC(=O)CN2CCN(CC(=O)[O-])CCN(CC(=O)[O-])CCN(CC(=O)[O-])CC2)cc1.[153Gd+3] [Example 62] | 17.1
